# Data: ChEMBL document CHEMBL3217654, “Beta-adrenergic receptor signaling by the isomers of isoproterenol and like drugs in retinal endothelial cells and Muller cells” (Medchemcomm, 2011)
# The source made the active and inactive calls. The calls are words filed in the database; no cut-off is given here.
# Tests used:
# [1] = Antiinflammatory activity in REC (unknown origin) assessed as effect on high glucose-induced TNFalpha level at 0.05 to 10 uM after 30 to 60 mins by ELISA; type: functional
# [2] = species: Rattus norvegicus; experiment: Reduction of high glucose-induced apoptosis in rat rMC-1 cells assessed as decrease in caspase 3 level at 0.05 to 10 uM after 1 to 24 hrs by ELISA; type: functional, cell-based
# [3] = species: Rattus norvegicus; experiment: Antiinflammatory activity in rat rMC-1 cells assessed as decrease of high glucose-induced TNFalpha level at 0.05 to 10 uM after 1 to 24 hrs by ELISA; type: functional, cell-based
# [4] = Reduction of high glucose-induced apoptosis in REC (unknown origin) assessed as decrease in caspase 3 level at 0.05 to 10 uM after 30 to 60 mins by ELISA; type: functional
# [5] = Reduction of high glucose-induced apoptosis in REC (unknown origin) assessed as decrease in caspase 3 level at 10 uM after 15 to 45 mins by ELISA; type: functional
# [6] = Antiinflammatory activity in REC (unknown origin) assessed as increase of high glucose-induced TNFalpha level at 0.05 to 10 uM after 30 to 60 mins by ELISA; type: functional
# [7] = target: Beta-1 adrenergic receptor (Homo sapiens) (UniProt P08588); experiment: Displacement of […]-iodocyanopindolol from beta1-adrenergic receptor in REC (unknown origin) at 0.01 to 10000 nM
# Sequence of Beta-1 adrenergic receptor (Homo sapiens) (P08588 whole entry, looked up): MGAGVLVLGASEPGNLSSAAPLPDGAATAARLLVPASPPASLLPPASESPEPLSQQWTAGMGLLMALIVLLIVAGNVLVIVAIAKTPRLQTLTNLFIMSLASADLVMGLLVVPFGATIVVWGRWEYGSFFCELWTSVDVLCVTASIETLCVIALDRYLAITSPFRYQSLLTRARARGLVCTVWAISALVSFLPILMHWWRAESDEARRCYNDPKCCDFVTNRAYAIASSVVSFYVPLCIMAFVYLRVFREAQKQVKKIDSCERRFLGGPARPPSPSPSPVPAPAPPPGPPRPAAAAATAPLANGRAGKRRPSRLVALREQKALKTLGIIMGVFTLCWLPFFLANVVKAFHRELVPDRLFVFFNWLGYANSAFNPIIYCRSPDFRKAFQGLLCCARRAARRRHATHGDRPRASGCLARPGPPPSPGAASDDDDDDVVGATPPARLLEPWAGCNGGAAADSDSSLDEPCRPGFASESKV
# [8] = target: Beta-1 adrenergic receptor (Rattus norvegicus) (UniProt P18090); experiment: Displacement of […]-iodocyanopindolol from beta1-adrenergic receptor in rat rMC-1 cells at 0.01 to 10000 nM; type: cell-based
# Sequence of Beta-1 adrenergic receptor (Rattus norvegicus) (P18090 whole entry, looked up): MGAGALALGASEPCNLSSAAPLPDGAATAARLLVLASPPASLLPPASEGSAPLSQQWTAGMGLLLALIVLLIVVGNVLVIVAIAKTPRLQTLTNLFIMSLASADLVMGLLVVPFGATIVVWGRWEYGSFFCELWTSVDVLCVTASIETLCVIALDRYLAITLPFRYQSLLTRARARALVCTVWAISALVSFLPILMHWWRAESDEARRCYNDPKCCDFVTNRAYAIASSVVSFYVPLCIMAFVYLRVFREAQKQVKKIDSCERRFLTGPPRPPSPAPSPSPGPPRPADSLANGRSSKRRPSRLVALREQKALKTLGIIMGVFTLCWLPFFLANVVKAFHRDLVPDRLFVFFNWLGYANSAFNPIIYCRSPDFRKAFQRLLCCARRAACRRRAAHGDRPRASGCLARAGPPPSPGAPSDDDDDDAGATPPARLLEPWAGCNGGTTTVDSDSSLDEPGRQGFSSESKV
# [9] = Antiinflammatory activity in REC (unknown origin) assessed as decrease of high glucose-induced TNFalpha level at 0.05 to 10 uM after 30 to 60 mins by ELISA; type: functional
inhibition [7],inhibition [8],Compound,Activity [1],Activity [2],Activity [3],Activity [4],Activity [5],Activity [6],Activity [9]
–,–,CC(C)NC[C@H](O)c1ccc(O)c(O)c1 (stereo in doubt; R-1),inactive,inactive,Active,Active,Active,–,–
–,–,CC(C)NC[C@H](O)c1ccc(O)c(O)c1 (stereo in doubt; S-1),inactive,inactive,Active,inactive,–,–,–
–,–,O=C(NC[C@H](O)c1ccc(O)c(O)c1)N1CCOCC1,–,inactive,inactive,inactive,–,inactive,–
–,–,Oc1ccc([C@@H](O)CNCCCN2CCOCC2)cc1O,inactive,inactive,inactive,Active,Active,–,–
inactive,inactive,O=C(NCCN(C[C@H](O)c1ccc(O)c(O)c1)C(=O)N1CCOCC1)N1CCOCC1,–,inactive,inactive,Active,Active,–,Active
